Laboratory results published in US20250346634A1, “CYCLIC PEPTIDES FOR TARGETING EPIDERMAL GROWTH FACTOR RECEPTOR AND MUTATIONS THEREOF FOR DRUG DELIVERY” (priority 2022, published 2025).
Read-outs that look alike come from different tables or passages of the source. Bridge positions count the residues as written; N and C are the ends. Square brackets hold non-standard residues; d marks the D form. Peptide text beside a SMILES is read from it. * marks the point of attachment. Camptothecin(20S-OCO) = CC[C@@]1(OC(=O)*)C(=O)OCc2c1cc1n(c2=O)Cc2cc3ccccc3nc2-1; FITC = O=C1OC2(c3ccc(O)cc3Oc3cc(O)ccc32)c2ccc(NC(=S)*)cc21; Abu = CC[C@H](N)C(=O)O; GABA = NCCCC(=O)O

Legend:
[1] = Stability of peptide-drug conjugates in complete growth medium (LC-MS); type: in vitro ADME; conditions: RPMI and DMEM complete growth medium, 37° C., read-out: half-life of degradation
Protocol: At each time point, 10 μl of sample was taken and mixed with 25 μl ACN/H2O (1:1, v.v.). The samples were centrifuged at 1,400 rpm for 15 min. Supernatants were collected, filtered and analyzed by liquid chromatography mass spectrometry (LC-MS).
The stability of P6-CPT and P9-CPT was measured in RPMI and DMEM complete growth medium at 37° C. for 0 h, 0.5 h, 3 h, 7 h, 24 h, 48, and 72 h. The degradation of the conjugates and the CPT release was analyzed by LC-MS. The stability of these conjugates and drug release rates were similar.

[2] = tested on: H1299 cells; assay: XTT cytotoxicity assay on H1299 cells; type: cell-based
Protocol: (§1) Cell growth in the presence of PDCs was measured by a commercial XTT assay kit (Cell Proliferation Kit, XTT based; Biological Industries, Israel). The cells (10^4 cells/well) were seeded in 96 well plates and incubated overnight in complete growth medium. The cells were washed and then cultured in 100 μl of new medium containing various concentrations of drug or peptides, for 24 h, 48 h, and 72 h. The XTT solution was added to each well and the plate was further incubated 2-3 h at 37° C. The optical density in the wells was measured at both 480 nm and 680 nm using a TECAN Infinite M200 ELISA reader. All the tests were done in triplicates, and each experiment was repeated three times.
(§2) The cytotoxicity of the Peptide-Drug conjugates (PDCs) was tested in a range of concentrations (0.5-50 μM) against H1299 and DKMG cells using two protocols. In the first protocol, cells were pre-incubated with P6, P9, P6-CPT, and P9-CPT for 6 hours, the medium was removed, and a fresh, drug-free complete medium was added for additional 24 h (designated as 6h24h) or 48 h (6h48h). In the second protocol, cells were exposed continuously to PDCs for 24 h, 48 h, and 72 hours.

[3] = tested on: H1299, H1975 and DKMG cells; assay: Phage display biopanning with NGS, selection of EGFR-specific peptides; type: cell-based; conditions: 3 rounds of biopanning, K562-derived sequences excluded
Protocol: A heptapeptide phage display library (Ph.D.-C7C Phage Display Library Kit, New England Biolabs, USA) was used for the in vitro biopanning experiments. All cell lines were individually incubated with phages from the stock library. […] Adherent cells (H1299, […] and DKMG) were plated at a density of 10^5 cells/ml in a 6-well plate. When the culture reached 80% confluence, the first well was incubated with phage library (10^11 pfu/10 μl) for 1 h at 37° C. with gentle stirring. The medium containing unbound phage was collected and transferred to the second, similar well and incubated again. The procedure was repeated with the third well. Cells in the third wells were washed four times with 0.5% Tween-20 in PBS. Then, 0.5 ml of elution buffer (0.2 M glycine-HCl, pH 2.2) was added and incubated for 10 min at 4° C.; the pH was neutralized by addition of 75 μl of 1 M Tris-HCl buffer, pH 9.0. The supernatant containing cell surface binding phage was collected. The cells were then lysed by incubation for 1 h at 4° C. with 2 ml of 30 mM Tris-HCl and 1 mM EDTA, pH 8.0. The medium was collected and centrifuged at 1,500 rpm for 5 min and the supernatant containing cell-internalized phage was transferred to a new tube. The internalized and surface-bound phages were amplified according to the manufacturer's instructions. An aliquot of the phages was retained for sequencing (see below) and the remainder was subjected to two additional rounds of biopanning. […]
Finally, two groups of peptides were constructed; the first included sequences that were present in all three EGFR+ve cell lines and included about 416 sequences; the second was divided into three subgroups, one for each cell line, wherein the subgroup for H1299 included some 1666 sequences, the subgroup for H1975 included some 10437 sequences, the subgroup for DKMG included some 981 sequences. From this list, top eleven S—S bridged cyclic peptides sequences were selected by their count in the sequencing data (the highest number of reads). […]

[4] = tested on: DKMG cells; assay: XTT cytotoxicity assay on DKMG cells; type: cell-based
Protocol: as §1, §2

[5] = tested on: H1299, DKMG and K562 cells; assay: Flow cytometry binding of peptide-FITC conjugates; type: cell-based; conditions: 2.5 μM FITC-labeled peptide
Protocol: Cells with 80-90% confluence were incubated with 2.5 μM FITC-conjugated peptides in RPMI-5% FBS for 1 h at 37° C. Cells were scrapped from the culture flask and washed twice with 2 ml FCSB.
This concentration was chosen based on preliminary dose dependence study.

[6] = tested on: H1299 tumor (EGFR positive) versus K562 tumor (EGFR negative); assay: In vivo targeting in mice with dual H1299 and K562 xenografts; conditions: nude mice, tail vein, 100 μg
Protocol: Animal protocols were approved by the Institutional Animal Care and Use Committee at Ariel university Israel. Nude mice were injected with either H1299 cells in the right flank and with K562 cells in the left flank, so that each mouse bore either dual H1299 and K562 xenografts. When tumors reached, 100 mm^3 mice were injected via tail vein with 100 μg of FITC-labeled cyclic peptide, according to some embodiments of the present invention, and imaged using IVIS® SpectrumCT 8- and 24-hours post injection. Immediately afterwards, the mice were sacrificed for ex vivo imaging of organs.
Signal from the targeted tumor compared to other tissues was determined for each animal.

[7] = tested on: EGFR+ve cells (H1299, DKMG) versus K562 cells; assay: Flow cytometry internalization of peptide-FITC conjugates; type: cell-based; conditions: 2.5 μM FITC-labeled peptide
Description: Analysis was done with FACS cell analyzer.

[8] = molecular target: T1, EGFR variant III (EGFRvIII), on DKMG glioblastoma cells (human, UniProt P00533 25-1210); assay: flow cytometry, 2.5 uM FITC-peptide on DKMG cells (EGFR WT and EGFRvIII)
T1 construct: whole, on cells; DKMG cells express both wild type EGFR (92% of cells) and EGFRvIII (82%); All results on DKMG cells are written against this molecule; also called EGFR mutant; EGFRVIII DKMG

[9] = molecular target: T2, epidermal growth factor receptor (EGFR), wild type (human, UniProt P00533 25-1210); assay: confocal microscopy, 25 uM FITC-peptide, 3 h, H1299 cells
T2 construct: whole, on cells; The target is inferred from tumour cell lines that overexpress EGFR, compared with EGFR-negative cells; No purified receptor was used; also called EGFRWT; EGFR WT

[10] = H1299, 6 w 48 h (6 h pre-incubation, then 48 h drug-free medium)
[11] = H1299, 24 h continuous exposure
[12] = H1299, 48 h continuous exposure
[13] = H1299, first protocol (6 h pre-incubation), up to 48 h
[14] = H1299, second protocol, continuous exposure
[15] = H1299, 72 h continuous exposure

Molecule | half-life [1] [min] | IC50 [2, 10] [µM] | IC50 [2, 11] [µM] | IC50 [2, 12] [µM] | cytotoxicity [2, 13] | cytotoxicity [2, 14] | IC50 [2, 15] [µM] | IC50 ([4]; 24 h continuous exposure) [µM] | IC50 ([4]; 48 h continuous exposure) [µM] | IC50 ([4]; 72 h continuous exposure) [µM] | other results
CC[C@H](C)[C@@H]1NC(=O)[C@H](Cc2ccc(O)cc2)NC(=O)[C@H](CO)NC(=O)CNC(=O)[C@@H]2CCCN2C(=O)[C@H](C(C)C)NC(=O)[C@H](Cc2cnc[nH]2)NC(=O)[C@@H](NC(=O)CCCNC(=O)O[C@]2(CC)C(=O)OCc3c2cc2n(c3=O)Cc3cc4ccccc4nc3-2)CSSC[C@@H](C(N)=O)NC1=O [Peptide P6-CPT] ({Camptothecin(20S-OCO)-GABA}-CHVPGSYIC-NH2; disulfide 1-9) | 360 to 420 | 32 | 14.5 | 5.5 | exhibited cytotoxic effect after 48 h | observed after 24 hours post exposure | – | – | – | – | –
CSCC[C@@H]1NC(=O)[C@H](C)NC(=O)[C@H](CC(N)=O)NC(=O)[C@H](C(C)C)NC(=O)[C@@H](N)CSSC[C@@H](C(N)=O)NC(=O)[C@H](Cc2ccc(O)cc2)NC(=O)[C@H](CO)NC(=O)[C@H](CCC(N)=O)NC1=O [Peptide P9] (H-CVNAMQSYC-NH2; disulfide 1-9) | – | – | 22.3 ± 0.2 | 27.3 ± 1.7 | – | – | 22.5 | 16.4 ± 1.9 | 17.5 ± 2.3 | 17.5 ± 1.6 | Cell line (peptide specificity per cell line; source of the cells from which the peptide was identified) [3]: DKMG; cytotoxicity [2]: did not demonstrate cytotoxicity
C[C@@H]1NC(=O)[C@@H](NC(=O)CCCNC(=S)Nc2ccc3c(c2)C(=O)OC32c3ccc(O)cc3Oc3cc(O)ccc32)CSSC[C@@H](C(N)=O)NC(=O)[C@H](CCCNC(=N)N)NC(=O)CNC(=O)[C@@H]2CCCN2C(=O)[C@H]([C@@H](C)O)NC(=O)[C@H](Cc2ccc(O)cc2)NC(=O)[C@H](CCC(N)=O)NC1=O [FITC-labeled P11] ({FITC-GABA}-CAQYTPGRC-NH2; disulfide 1-9) | – | – | – | – | – | – | – | – | – | – | binding (flow cytometry) [5]: bind to H1299 and DKMG selectively but not to K562 cells; accumulation in other organs ([6]; ex vivo imaging of organs): No significant accumulation; tumor accumulation ([6]; imaging 8 and 24 hours post injection): accumulates in the H1299 tumor compared to the K562 tumor; internalization (flow cytometry) [7]: internalized only into to EGFR+ve cells
CC[C@@H]1NC(=O)[C@@H](NC(=O)CCCNC(=O)O[C@]2(CC)C(=O)OCc3c2cc2n(c3=O)Cc3cc4ccccc4nc3-2)CSSC[C@@H](C(N)=O)NC(=O)[C@H](Cc2ccc(O)cc2)NC(=O)[C@H](CO)NC(=O)[C@H](CCC(N)=O)NC(=O)[C@H](CCSC)NC(=O)[C@H](C)NC(=O)[C@H](CC(N)=O)NC1=O [Peptide P9-CPT] ({Camptothecin(20S-OCO)-GABA}-C[Abu]NAMQSYC-NH2; disulfide 1-9) | 360 to 420 | 21.5 ± 2.1 | 8.4 ± 0.5 | 2.2 ± 0.3 | exhibited cytotoxic effect after 48 h | observed after 24 hours post exposure | 1.2 ± 0.1 | 6.76 | 2.7 ± 1 | 0.2 ± 0.1 | IC50 ([4]; 6 w 48 h (6 h pre-incubation, then 48 h drug-free medium)): 32 ± 1.6 µM; cytotoxic effect ([4]; first protocol): noted after 48 hours; IC50 concentration higher compared to the free CPT ([4]; first protocol, 48 hours): 4 fold
{FITC-GABA}-CHVPGSYIC-NH2 (disulfide 1-9; SMILES CC[C@H](C)[C@@H]1NC(=O)[C@H](Cc2ccc(O)cc2)NC(=O)[C@H](CO)NC(=O)CNC(=O)[C@@H]2CCCN2C(=O)[C@H](C(C)C)NC(=O)[C@H](Cc2c[nH]cn2)NC(=O)[C@@H](NC(=O)CCCNC(=S)Nc2ccc3c(c2)C(=O)OC32c3ccc(O)cc3Oc3cc(O)ccc32)CSSC[C@@H](C(N)=O)NC1=O, also called FITC-P6; P6-FITC conjugate) [FITC-labeled cyclic peptide P6, c(CHVPGSYIC)] | – | – | – | – | – | – | – | – | – | – | binding result [8]: binds; binding result [9]: binds
